From patent publication US4328242A, “α-(3,4,5-Trimethoxyhenzoyl)thiopropionyl-glycine” (Ausoria Farmaceutici S.r.l., priority 1980, dated 1982)
Like-named read-outs stand apart in the source and are kept apart here.

What was measured:
[1] = Stability to light; format: physicochemical; conditions: powder form, light of a 60 watt lamp, three months
[2] = solid state as a dry powder and in solution, even at low relative humidity and room temperature; cited from earlier work
[3] = Stability in reducing medium (SO2); format: physicochemical; conditions: 25 mg/ml, sodium bisulfite calculated as SO2, refluxed three hours
Description: In the presence of SO2 --solutions containing 25 mg/ml of TBPG and MPG respectively in the presence of sodium bisulfite calculated as SO2 are warmed and refluxed for a period of three hours.

[4] = Stability in solution (acidic, alkaline, oxidizing medium); format: physicochemical; conditions: 3% hydrogen peroxide, two months
[5] = test system: rats; experiment: Protective activity of the liver in the intoxication caused by CCl4 (BSF elimination); format: in vivo; conditions: rats intoxicated with CCl4; 90 and 180 mg/kg orally (equimolar)
Description: The animals, that is rats, were intoxicated with CCl4 for a period of seven days. They were treated during the same days and for a subsequent period of seven days with TBPG in the dose of 200 and 400 mg/kg orally and with α-mercaptopropionylglycine in the dose of 90 and 180 mg/kg orally. On the fifteenth day, the rats have been treated with BSF in the amount of 10 mg/kg intravenously.

[6] = Stability to moisture; format: physicochemical; conditions: open vials, 90% relative humidity, a month
Description: Samples of TBPG and MPG have been maintained in open vials at room temperature under conditions of 90% relative humidity and at 50° C. always with 90% relative humidity. After a month of exposure, the following observations have been made.

[7] = test system: guinea pigs; experiment: Antibronchospastic activity, histamine aerosol; format: in vivo; conditions: equimolar doses
Excerpt: Histamine administered in the form of an aerosol has caused in guinea pigs symptoms of broncho-spasm accompanied by convulsions, irreversible collapse and death.

[8] = test system: guinea pigs; experiment: Protective activity in subacute bronchitis induced by inhalation of citric acid; format: in vivo; conditions: 7.5% citric acid inhalation, oral route, equimolar doses
[9] = test system: rats; experiment: Regenerative action in partial hepatectomy; format: in vivo; conditions: partial hepatectomy, equimolar doses
[10] = test system: rats; experiment: Protective action on chronic bronchitis induced by inhalation of SO2; format: in vivo; conditions: SO2 aerosol, equimolar dosages
Description: Bronchopulmonary lesions were induced in the animals by aerosolization of SO2. The animals were then treated for two weeks with TBPG in the dosage of 100 and 400 mg/kg by the oral route, rectal route and by inhalation.

[11] = format: in vivo; conditions: rats, oral route, equimolar doses
[12] = test system: rabbits; experiment: Secretory activity in rabbits (bronchial secretion); format: in vivo; conditions: with respect to the control animals
Excerpt: This activity has been determined using the method described by E. M. Boyd and C. F. Boyd, modified by P. C. Braga, et al described in Bronchial Hypersecretion, 1973. This activity has been determined every hour for a period of four hours by measuring the amount of bronchial secretion derived from the laryngo-tracheal organs and from the tracheo-bronchial organs of rabbits.

[13] = test system: rats; experiment: Bronchosecretolithic activity in rats (sodium fluorescine method); format: in vivo; conditions: 135 mg/kg intraperitoneally (equimolar)
Description: The secretolithic activity of TBPG has been determined in comparison to α-mercaptopropionylglycine by administering 300 mg/kg of the substance intraperitonally and comparing with 135 mg/kg of α-mercaptopropionylglycine administered also intraperitoneally. The doses are equimolar. The method is based on the use of sodium fluorescine described by H. M. Mawatari (Experimental Studies on the Expectorant Action of Several Drugs, Kogoshima Daigakeu Igakeu Zasshi 27, 561, 1976).

[14] = test system: rats; experiment: Action on the period of sleep induced by barbiturates; format: in vivo; conditions: rats intoxicated with CCl4; equimolar doses
Description: The activity of TBPG administered for two days in the dose of 200 and 400 mg/kg orally, has been determined on the basis of the reduction of the period of sleep induced by Nembutal on rats intoxicated with CCl4.

[15] = Stability at room temperature; format: physicochemical; conditions: closed containers, 36 months
Excerpt: Five different samples of TBPG and α-mercaptopropionyl glycine have been preserved at room temperature in closed containers for a period of 36 months. At the end of the storage period, the following properties have been determined: […]

[16] = Isothermic (accelerated) stability according to the method of Garret, TLC; format: physicochemical
Description: The tests of accelerated stability have been carried out with the substance in powder form, that is in glass vials, hermetically closed with a plastic screw cap and also with the substance dissolved in water, that is 500 mg in 10 cc in a transparent glass container of 20 cc capacity closed with a plastic screw cap.
The production of impurities, if any, due to degradation of the substance, has been determined by means of TLC.

[17] = Powder, 60°, read-out: Chromatographic Impurities
[18] = Powder, 70°, read-out: Chromatographic Impurities
[19] = Powder, 80°, read-out: Chromatographic Impurities
[20] = Solution (500 mg in 10 cc water), 60°, read-out: Chromatographic Impurities
[21] = Solution (500 mg in 10 cc water), 70°, read-out: Chromatographic Impurities
[22] = Solution (500 mg in 10 cc water), 80°, read-out: Chromatographic Impurities

In the case of `CC(S)C(=O)NCC(=O)O` (stereo not drawn) [α-mercaptopropionylglycine, 2-mercaptopropionylglycine], the stability to light [1] is given as “strong yellow color, due to degradation accompanied by an unpleasant odor and taste”, the stability on storage [2] is given as “low stability” and the “stability in reducing medium” value [3] is given as “undergoes substantial physico-chemical and organoleptic change”. For the same compound, the “stability in oxidizing medium” value [4] was “the change is greater”, the “elimination of BSF, compared with TBPG” value [5] was “comparable” and the stability to moisture ([6]; 50° C.) was “marked change in color, odor and taste accompanied by degradation products”. For the same compound, the stability to moisture ([6]; room temperature (t.a.)) was “significant change of organoleptic properties”, the “antibronchospastic efficacy compared with TBPG” value [7] was “efficacy comparable” and the “efficacy compared with TBPG” value [8] was “essentially overlapping”. The “regeneration of the hepatic tissue, compared with TBPG” value [9] was “comparable”, the “protection of the bronchi and lungs, compared with TBPG” value [10] was “Analogous results” and the “concentration in the kidney” value [11] was “high concentrations in the kidney”. The “distribution in the organs” value [11] was “sufficiently homogenous”, the laryngo-tracheal secretion [12] was “P 0.05 with respect to the control animals” and the tracheo-bronchial secretion [12] was “n.s”. For the same compound, the bronchosecretolithic activity [13] was 15.2%, the “reduction of the period of sleep induced by Nembutal, compared with TBPG” value [14] was “essentially comparable” and the “organoleptic properties (taste, odor)” value [15] was “undergo substantial change”. The “Chromatographic Impurities” value ([16]; Powder, 60°, 320 hours) was “Traces”, the degraded at 960 h [16, 17] was 1% and the degraded at 1280 h [16, 17] was 1%. The degraded at 1600 h [16, 17] was 2%, the “Chromatographic Impurities” value ([16]; Powder, 70°, 120 hours) was “Traces” and the degraded at 240 h [16, 18] was 1%. The degraded at 480 h [16, 18] was 2%, the degraded at 45 h [16, 19] was 1% and the degraded at 90 h [16, 19] was 1%. The degraded at 180 h [16, 19] was 2%, the “Chromatographic Impurities” value ([16]; Solution (500 mg in 10 cc water), 60°, 0 hours) was “Absent” and the degraded at 320 h ([16]; Solution (500 mg in 10 cc water), 60°, 320 hours, read-out: Chromatographic Impurities) was 0.5%. The degraded at 640 h ([16]; Solution (500 mg in 10 cc water), 60°, 640 hours, read-out: Chromatographic Impurities) was 0.6%, the degraded at 960 h [16, 20] was 1% and the degraded at 1280 h [16, 20] was 1.5%. It also gave a degraded at 1600 h [16, 20] of 2.5%, a degraded at 180 h [16, 21] of 1% and a degraded at 240 h [16, 21] of 2%. The degraded at 480 h [16, 21] was 2.5%, the degraded at 45 h [16, 22] was 1% and the degraded at 90 h [16, 22] was 2.5%. It also gave a degraded at 120 h ([16]; Solution (500 mg in 10 cc water), 80°, 120 hours, read-out: Chromatographic Impurities) of 1.5%.
